Assays:
[1] = Inhibition of GSK3 in CHO cells expressing insulin receptor assessed as activation of glycogen synthase measured after 30 mins in presence of glucose-6-phosphate by filter paper assay; type: cell-based; conditions: Cricetulus griseus, 0.5 h
[2] = Inhibition of GSK3 (unknown origin) using CREB peptide as substrate; design: species or system Homo sapiens
[3] = Oral bioavailability in ZDF rat; type: ADME, organism-based; conditions: in vivo
[4] = molecular target: Glycogen synthase kinase-3 alpha (Homo sapiens) (UniProt P49840); experiment: Inhibition of wild-type human full length GSK3A (M1 to S483 residues) expressed in bacterial expression system at 10 uM by Kinomescan method relative to control
Sequence of Glycogen synthase kinase-3 alpha (Homo sapiens) (P49840 2-483 limits assumed): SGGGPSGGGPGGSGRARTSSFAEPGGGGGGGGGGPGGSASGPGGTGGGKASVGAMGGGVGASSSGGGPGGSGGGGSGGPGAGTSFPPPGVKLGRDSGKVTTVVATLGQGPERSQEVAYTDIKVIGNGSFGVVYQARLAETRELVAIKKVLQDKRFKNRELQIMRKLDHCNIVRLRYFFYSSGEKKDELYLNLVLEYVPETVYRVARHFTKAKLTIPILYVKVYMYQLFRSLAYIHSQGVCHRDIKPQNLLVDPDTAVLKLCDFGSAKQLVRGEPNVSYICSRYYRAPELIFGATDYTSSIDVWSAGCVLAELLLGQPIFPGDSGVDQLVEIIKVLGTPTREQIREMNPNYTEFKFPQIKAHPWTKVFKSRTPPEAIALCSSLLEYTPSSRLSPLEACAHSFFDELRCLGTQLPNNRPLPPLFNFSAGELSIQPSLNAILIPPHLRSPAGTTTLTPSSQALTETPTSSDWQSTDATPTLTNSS

[5] = molecular target: Mitogen-activated protein kinase 9 (Homo sapiens) (UniProt P45984); experiment: Inhibition of wild-type human full length JNK2 (M1 to Q382 residues) expressed in mammalian expression system at 10 uM by Kinomescan method relative to control
Sequence of Mitogen-activated protein kinase 9 (Homo sapiens) (P45984 whole entry, looked up, the tested form may be a part): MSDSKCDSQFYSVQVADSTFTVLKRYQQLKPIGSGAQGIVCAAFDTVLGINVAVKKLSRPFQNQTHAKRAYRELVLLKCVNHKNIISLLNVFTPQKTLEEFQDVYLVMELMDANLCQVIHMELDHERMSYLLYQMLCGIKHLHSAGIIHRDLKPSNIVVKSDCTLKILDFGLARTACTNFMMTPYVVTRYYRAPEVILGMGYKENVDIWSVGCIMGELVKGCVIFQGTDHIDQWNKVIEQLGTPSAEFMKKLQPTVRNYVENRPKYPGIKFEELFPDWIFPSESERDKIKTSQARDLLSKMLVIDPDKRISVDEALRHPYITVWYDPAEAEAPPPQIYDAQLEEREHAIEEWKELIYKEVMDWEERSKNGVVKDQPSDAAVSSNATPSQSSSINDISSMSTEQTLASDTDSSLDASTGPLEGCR

[6] = molecular target: Glycogen synthase kinase-3 beta (Homo sapiens) (UniProt P49841); experiment: Inhibition of wild-type human full length GSK3B (M1 to T433 residues) expressed in mammalian expression system at 10 uM by Kinomescan method relative to control
Sequence of Glycogen synthase kinase-3 beta (Homo sapiens) (P49841 whole entry, looked up, the tested form may be a part): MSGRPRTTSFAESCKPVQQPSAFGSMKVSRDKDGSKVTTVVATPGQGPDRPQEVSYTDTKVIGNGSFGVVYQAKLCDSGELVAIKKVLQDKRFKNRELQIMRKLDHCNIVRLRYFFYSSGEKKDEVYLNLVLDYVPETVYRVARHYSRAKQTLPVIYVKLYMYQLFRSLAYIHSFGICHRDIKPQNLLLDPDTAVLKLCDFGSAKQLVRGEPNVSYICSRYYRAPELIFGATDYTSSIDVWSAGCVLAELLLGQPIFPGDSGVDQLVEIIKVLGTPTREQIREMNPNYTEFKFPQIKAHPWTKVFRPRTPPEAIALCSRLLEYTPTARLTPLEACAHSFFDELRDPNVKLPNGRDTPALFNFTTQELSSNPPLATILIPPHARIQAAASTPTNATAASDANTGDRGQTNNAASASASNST

[7] = Half life in ZDF rat; type: ADME; conditions: in vivo
[8] = molecular target: Mitogen-activated protein kinase 10 (Homo sapiens) (UniProt P53779); experiment: Inhibition of wild-type human partial length JNK3 (V28 to Q422 residues) expressed in mammalian expression system at 10 uM by Kinomescan method relative to control
Sequence of Mitogen-activated protein kinase 10 (Homo sapiens) (P53779 whole entry, the tested form may be a part): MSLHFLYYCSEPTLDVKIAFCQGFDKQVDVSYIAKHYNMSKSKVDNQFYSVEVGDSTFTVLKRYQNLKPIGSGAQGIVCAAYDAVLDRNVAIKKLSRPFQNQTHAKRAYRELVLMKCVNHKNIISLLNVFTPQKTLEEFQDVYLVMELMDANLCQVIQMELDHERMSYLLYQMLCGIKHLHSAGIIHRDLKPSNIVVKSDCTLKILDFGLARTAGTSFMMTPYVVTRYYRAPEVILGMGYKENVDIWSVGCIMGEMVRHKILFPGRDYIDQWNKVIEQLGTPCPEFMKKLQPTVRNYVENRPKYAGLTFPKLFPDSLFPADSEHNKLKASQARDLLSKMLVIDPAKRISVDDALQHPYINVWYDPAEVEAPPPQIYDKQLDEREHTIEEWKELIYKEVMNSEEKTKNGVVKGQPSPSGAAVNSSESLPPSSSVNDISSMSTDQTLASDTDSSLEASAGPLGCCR

Rattus norvegicus = experiment: Antidiabetic activity in ZDF rat administered as single dose via oral gavage by OGTT; type: functional
[9] = molecular target: Serine/threonine-protein kinase B-raf (Homo sapiens) (UniProt P15056); experiment: Inhibition of wild-type human partial length BRAF (S429 to E741 residues) expressed in mammalian expression system at 10 uM by Kinomescan method relative to control
Sequence of Serine/threonine-protein kinase B-raf (Homo sapiens) (P15056 whole entry, the tested form may be a part): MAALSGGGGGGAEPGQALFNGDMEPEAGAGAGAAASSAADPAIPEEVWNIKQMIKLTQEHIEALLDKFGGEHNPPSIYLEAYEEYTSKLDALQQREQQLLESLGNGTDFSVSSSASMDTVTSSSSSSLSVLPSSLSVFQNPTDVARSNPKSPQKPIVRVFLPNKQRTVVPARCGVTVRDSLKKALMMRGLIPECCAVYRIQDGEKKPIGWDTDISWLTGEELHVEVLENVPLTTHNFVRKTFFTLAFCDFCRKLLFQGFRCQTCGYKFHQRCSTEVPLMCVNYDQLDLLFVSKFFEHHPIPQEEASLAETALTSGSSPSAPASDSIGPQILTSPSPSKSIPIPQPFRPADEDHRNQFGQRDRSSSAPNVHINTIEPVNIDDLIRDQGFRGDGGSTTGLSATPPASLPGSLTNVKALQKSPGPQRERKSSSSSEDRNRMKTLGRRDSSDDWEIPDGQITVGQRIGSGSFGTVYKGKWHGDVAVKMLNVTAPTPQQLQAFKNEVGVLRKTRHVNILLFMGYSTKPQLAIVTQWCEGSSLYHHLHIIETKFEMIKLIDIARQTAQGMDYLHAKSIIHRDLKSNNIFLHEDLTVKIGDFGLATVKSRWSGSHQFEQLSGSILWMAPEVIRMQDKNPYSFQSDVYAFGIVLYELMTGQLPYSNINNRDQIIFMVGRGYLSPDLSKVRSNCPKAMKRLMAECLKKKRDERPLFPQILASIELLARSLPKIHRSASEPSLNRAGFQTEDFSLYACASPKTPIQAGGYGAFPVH

[10] = molecular target: Mitogen-activated protein kinase 8 (Homo sapiens) (UniProt P45983); experiment: Inhibition of wild-type human full length JNK1 (M1 to Q384 residues) expressed in mammalian expression system at 10 uM by Kinomescan method relative to control
Sequence of Mitogen-activated protein kinase 8 (Homo sapiens) (P45983 whole entry, the tested form may be a part): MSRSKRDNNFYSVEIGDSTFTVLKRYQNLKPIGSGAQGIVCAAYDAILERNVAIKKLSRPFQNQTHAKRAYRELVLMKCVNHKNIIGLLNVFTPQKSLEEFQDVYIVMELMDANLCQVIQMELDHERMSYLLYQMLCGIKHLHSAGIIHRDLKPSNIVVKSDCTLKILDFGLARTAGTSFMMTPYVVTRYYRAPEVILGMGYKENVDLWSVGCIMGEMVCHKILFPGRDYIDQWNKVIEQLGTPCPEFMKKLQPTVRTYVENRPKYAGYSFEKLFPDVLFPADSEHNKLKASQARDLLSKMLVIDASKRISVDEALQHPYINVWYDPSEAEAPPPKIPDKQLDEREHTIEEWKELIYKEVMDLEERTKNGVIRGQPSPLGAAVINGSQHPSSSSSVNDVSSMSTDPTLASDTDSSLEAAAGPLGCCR

[11] = Half life in Beagle dog; type: ADME, Canis lupus familiaris; conditions: in vivo
[12] = Activity in CHO cells expressing insulin receptor assessed as activation of glycogen synthase

Compound	EC50 [1] [nM]	IC50 [2] [nM]	other results
C[C@@H](CNc1ccc(N2CCN(C)CC2=O)c(-c2ccc(Cl)cc2Cl)n1)Nc1ccc([N+](=O)[O-])c(N)n1	1050	66	
C[C@H](CNc1ccc(N2CCN(C)CC2=O)c(-c2ccc(Cl)cc2Cl)n1)Nc1ccc([N+](=O)[O-])c(N)n1		1010	
C[C@@H](CNc1ccc([N+](=O)[O-])c(N)n1)Nc1ccc(N2CCN(C)CC2=O)c(-c2ccc(Cl)cc2Cl)n1	310	36	
Nc1nc(NCCNc2ccc(N3CCCCC3=O)c(-c3ccc(Cl)cc3Cl)n2)ccc1[N+](=O)[O-]	70	13	
CN1CCN(c2ccc(NCCNc3ccc([N+](=O)[O-])c(N)n3)nc2-c2ccccc2)C(=O)C1		202	
CN1CCN(c2ccc(NCCNc3ccc([N+](=O)[O-])c(N)n3)nc2-c2ccoc2)C(=O)C1		3700	
CCc1ccc(-c2nc(NCCNc3ccc([N+](=O)[O-])c(N)n3)ccc2N2CCN(C)CC2=O)cc1	290	52	
C[C@H](CNc1ccc([N+](=O)[O-])c(N)n1)Nc1ccc(N2CCN(C)CC2=O)c(-c2ccc(Cl)cc2Cl)n1		207	
CN1CCN(c2ccc(NCCNc3ccc([N+](=O)[O-])c(N)n3)nc2-c2ccccc2Cl)C(=O)C1	1350	29	
Nc1nc(NCCNc2ccc(N3CCN(C4CC4)CC3=O)c(-c3ccc(Cl)cc3Cl)n2)ccc1[N+](=O)[O-]	40	13	
CN1CCN(c2ccc(NCCNc3ccc([N+](=O)[O-])c(N)n3)nc2-c2ccc(Cl)cc2Cl)C(=O)C1	130	8	bioavailability [3]: 30%; inhibition [4]: 99.5%; inhibition [5]: 97.4%; inhibition [6]: 95.8%; half-life [7]: 3.42 h; inhibition [8]: 98.3%; ED50 (Rattus norvegicus): 10 mg/kg; inhibition [9]: 91.8%; inhibition [10]: 92.2%; half-life [11]: 2.72 h
CN1CCN(c2ccc(NCCNc3ccc([N+](=O)[O-])c(N)n3)nc2-c2cccc(Cl)c2)C(=O)C1	3000	74	
Nc1nc(NCCNc2ccc(N3CCOCC3=O)c(-c3ccc(Cl)cc3Cl)n2)ccc1[N+](=O)[O-]	510	11	
CN1CCN(c2ccc(N(C)CCNc3ccc([N+](=O)[O-])c(N)n3)nc2-c2ccc(Cl)cc2Cl)C(=O)C1	220	15	
Nc1nc(NCCNc2ccc(N3CCNCC3=O)c(-c3ccc(Cl)cc3Cl)n2)ccc1[N+](=O)[O-]	140	11	
CC(=O)N1CCN(c2ccc(NCCNc3ccc([N+](=O)[O-])c(N)n3)nc2-c2ccc(Cl)cc2Cl)C(=O)C1	1400	13	
CN1CCN(c2ccc(NCCNc3ccc([N+](=O)[O-])c(N)n3)nc2-c2ccc(F)cc2F)C(=O)C1	1080	69	
CN1CCN(c2ccc(NCCNc3ccc([N+](=O)[O-])c(N)n3)nc2-c2ccc(Cl)cc2)C(=O)C1	760	44	
CN1CCN(c2ccc(NCCNc3ccc([N+](=O)[O-])c(N)n3)nc2-c2ccccc2C(F)(F)F)C(=O)C1	760	57	
Nc1nc(NCCNc2ccc(N3CCCC3=O)c(-c3ccc(Cl)cc3Cl)n2)ccc1[N+](=O)[O-]	530	5	
Cc1cnc(-c2cnc(NCCNc3ccc(C#N)cn3)nc2-c2ccc(Cl)cc2Cl)[nH]1 [LADUVIGLUSIB]	770		EC50 [12]: 770 nM
Nc1nc(NCCNc2ccc(N3CCN(CC(F)(F)F)CC3=O)c(-c3ccc(Cl)cc3Cl)n2)ccc1[N+](=O)[O-]	1800	18	
Nc1nc(NCCNc2ccc(NC(=O)CNCCO)c(-c3ccc(Cl)cc3Cl)n2)ccc1[N+](=O)[O-]	1600	12	

From ChEMBL document CHEMBL4610055, “Discovery and optimization of novel pyridines as highly potent and selective glycogen synthase kinase 3 inhibitors” (Bioorg Med Chem Lett, 2020)
